How the values were obtained:
Type in all cases: cell-based, human
[1] = test system: Circulating Tumour Cells (CTCs) from a patient with lung cancer (adenocarcinoma); assay: Drug response score assay on CTCs (with CD45+ cells for immunotherapy) from blood, Example 5; conditions: lung cancer CTCs; for Drug sensitivity as calculated by the assay (interpretation of Drug Response Scores): Table 17
Description: (§1) CD45^+ cells and circulating tumour cells (CTCs) were isolated from a blood sample provided by each subject.
(§2) CD45 separation was performed by adding human CD45 microbeads (50 μl/ml blood), incubating for 15 minutes at 4° C. and then processing using an AutoMACS machine. This separates the blood sample into CD45^+ and CD45^−cells in 2 separate falcons. The falcon tubes are then centrifuged at 1200 rpm for 5 minutes.
(§3) The supernatant was removed from the CD45^+falcon tube, and the cells resuspended in DMEM with 2 μl Cell Tox, 2 μl MT and 2 μl MT. 20 μl of the resuspended CD45^+ cells was then plated in each well which will contain an immunotherapy treatment.
(§4) The supernatant was removed from the CD45^−falcon tube, and the CD45^−cells contacted with 100 μl of FcR block and 100 μl of CD326 (EpCAM) MicroBeads, followed by incubation at […] 4° C. for 30 minutes. The CD45^−cells were then processed using an AutoMACS machine to separate the EpCAM positive and negative cells into 2 separate falcon tubes. The EpCAM-cells were discarded. The supernatant was removed from the EpCAM^+ cells, and the cells resuspended in DMEM with 2 μl Cell Tox, 2 μl MT and 2 μl MT. 20 μl of the resuspended pellet was then added to all sample wells excluding a blank. After all wells are added to, a cell count was conducted on the […] to determine the number of circulating tumour cells (CTCs).
(§5) The different cell types were each divided equally into populations, depending on the number of drugs/concentrations to be tested and plated on a cell-culture plate pre-coated with a scaffold of polycaprolactone (PCL) electrospun fibres and incubated at 37° C., 5% CO2, for 5 to (typically 10) minutes to facilitate cell attachment. After attachment, an initial imaging step was carried out using the RealTime-Glo™ MT assay from Promega (Catalogue No. G9711)) and the CellTox™ Green Cytotoxicity Assay (Promega, Catalogue No. G8741), carried out according to manufacturer's instructions. Following this initial imagining, the immunotherapeutic and/or chemotherapeutic agents were added to the cell populations as indicated below. After 10 minutes, the imagining step was repeated. The cell populations were then incubated at 37° C., 5% CO2 for 48 hours. The imaging step was then repeated. The cell populations were then re-dosed with the same immunotherapeutic and/or chemotherapeutic agents as indicated below, and incubated at 37° C., 5% CO2 for a further 48 hours. After this second 48 hour incubation, the imagining step was repeated for a final time.
(§6) At the end of this culture period, dose response scores were calculated using a normalized drug response metric as described in Gupta et al. (Communications Biology volume 3, Article number: 42 (2020), https://doi.org/10.1038/s42003-020-0765-z). The start readout for a given immunotherapeutic or chemotherapeutic agent at a given concentration was the to readout for said immunotherapeutic or chemotherapeutic agent at a specified concentration. The end readout for a given immunotherapeutic or chemotherapeutic agent at a given concentration was the final timepoint reading (t96h) for said immunotherapeutic or chemotherapeutic agent at a specified concentration.
(§7) The positive control start readout for a given drug/concentration was the to readout for the corresponding drug at a specified concentration. The positive control end readout for the corresponding drug at a specified concentration was the final timepoint reading (t96h) for the corresponding blank well.
(§8) The negative control start and end readouts for a given immunotherapeutic or chemotherapeutic agent at a given concentration were the to and final timepoint reading (t96h) respectively for blank cell or blank immuno cell well respectively.
(§9) The sensitivity or resistance of a subject's cancer to a given immunotherapeutic or chemotherapeutic agent was determined based on the calculated drug response score as shown in Table 2. […]

[2] = test system: cancer cells derived from the tissue sample of a patient with osteosarcoma; assay: Drug response score assay on tissue sample, Example 10; set-up: key to Drug response score, conc. 1 / Drug response score, conc. 2 / Drug response score, conc. 3 / Drug response score, conc. 4: normalized drug response metric per Gupta et al. 2020; conditions: for Drug response score, conc. 1 / Drug response score, conc. 2 / Drug response score, conc. 3 / Drug response score, conc. 4: tissue sample; for Drug response score, conc. 1: conc. 1 per Table 31: Etop 1, DTIC 1.5, Ifos 0.125, Doce 0.02, Irinotecan 5 μg/ml; for Drug response score, conc. 2: conc. 2 per Table 31: Etop 4, DTIC 3, Ifos 0.25, Doce 0.2, Irinotecan 10 μg/ml; for Drug response score, conc. 3: conc. 3 per Table 31: Etop 20, DTIC 6, Ifos 5, Doce 2, Irinotecan 25 μg/ml; for Drug response score, conc. 4: conc. 4 per Table 31: Etop 100, DTIC 12, Ifos 10, Doce 10, Irinotecan 50 μg/ml
Description: (§10) Where a tissue sample was provided by each subject, cancer stem cells (CSCs, CD133^+), were isolated from said sample. Tumour marker cells were further isolated from each tissue sample. The remaining cells were designated tumour marker^+ cells.
(§11) First, disaggregation of the tissue samples was carried out. Disaggregation was dependent on the size of the tissue sample and the method of retrieval: • EBUS (Endobronchial Ultrasound Scan and Biopsy)—very small fragments of tissue in solution-spun at 1200 rpm for 5 minutes to collect tissue pellet • Bronchoscopy-larger fragments with larger amount of blood vessels • Broncho-lavage-similar to EBUS, spun at 1200 rpm for 5 minutes to collet tissue pellet
(§12) Once a pellet of tissue obtained, DMEM added to the tissue pellet and the material forced through a […] Smart strainer. Once a cell suspension was achieved, this was spun at 1200 rpm for 5 minutes and the supernatant removed. The cells were then resuspended to a volume of 60 μl.
(§13) 20 μl of FcR block and 20 μl of CD133 microbeads were added to the resuspended cells, followed by incubation for 15 minutes at 4° C. The cells were then processed using an AutoMACS machine. This separates the […] into CD133^+ and CD133^− cells in 2 separate falcons. The falcon tubes are then centrifuged at 1200 rpm for 5 minutes.
(§14) The supernatant was removed from the CD133+falcon tube, and the cells resuspended in DMEM with 2 μl Cell Tox, 2 μl MT and 2 μl MT. 20 μl of the resuspended […] was then plated in each well which will contain an immunotherapy treatment.
(§15) The supernatant was removed from the CD133^− falcon tube, and the CD133^− cells contacted with 40 μl of a tumour separation microbeads cocktail containing microbeads bound to anti-CD31, anti-CD45, anti-Glycophorin-A (Gly-A) and an anti-fibroblast antibody.
(§16) This cocktail is used to separate out tumour marker cells using MACS, by separating out CD31^+, CD45^+ and Gly-A^+ cells. In addition, anti-fibroblast antibody-labelled beads are also used. The cocktail is added to the CD133^− falcon tube, followed by incubation for 15 minutes at 4° C. MACS is carried out using an AutoMACS machine. This cells which are not bound by the CD31, CD45, Gly-A and anti-fibroblast antibody beads are the tumour marker^+ cells.
as §5
as §6, with “The end readout for a given immunotherapeutic or chemotherapeutic agent at a given concentration was the final timepoint reading (t96h) for said immunotherapeutic or chemotherapeutic agent at a specified concentration.” left out

[3] = test system: Circulating tumour cells (CTCs) from a patient with GI cancer (Cholangio Carcinoma, stage 4); assay: Drug response score assay on blood sample, Example 9
Description: as §1, §2, §3, §4, §5, §6, §7, §8, §9

[4] = test system: Cancer Cells from tissue sample (CSCs, tumour marker+ cells) of a patient with GI cancer (Cholangio Carcinoma, stage 4); assay: Drug response score assay on tissue sample, Example 9
Description: as §10, §11, §12, §13, §14, §15, §16, §5
as §6, with “The end readout for a given immunotherapeutic or chemotherapeutic agent at a given concentration was the final timepoint reading (t96h) for said immunotherapeutic or chemotherapeutic agent at a specified concentration.” left out

[5] = test system: Circulating Tumour Cells (CTCs) from a patient with rectal cancer (anorectal carcinoma with secondary lung cancer); assay: Drug response score assay on CTCs (with CD45+ cells for immunotherapy) from blood, Example 3
Description: as §1, §2, §3, §4, §5, §6, §7, §8, §9

**Q.** Which “effectiveness on Circulating Tumour Cells (CTCs) under laboratory conditions” value [1] does the source give for C[C@@H](Oc1cc(-c2cnn(C3CCNCC3)c2)cnc1N)c1c(Cl)ccc(F)c1Cl [Crizotinib] here?
**A.** marginally more effective than other agents

**Q.** What about the “Drug sensitivity as calculated by the assay (interpretation of Drug Response Scores)” value [1] of the same compound?
**A.** S++

**Q.** What does the source list for CN(C)/N=N/c1[nH]cnc1C(N)=O [DTIC]?
**A.** Drug response score, conc. 1 [2]: −0.7928; Drug response score, conc. 2 [2]: 0.4035; Drug response score, conc. 3 [2]: −0.0520; Drug response score, conc. 4 [2]: 0.1714

**Q.** Which “effectiveness on Circulating Tumour Cells (CTCs) under laboratory conditions” value [1] does the source give for C#Cc1cccc(Nc2ncnc3cc(OCCOC)c(OCCOC)cc23)c1 [Erlotinib] here?
**A.** relatively less effective compared rest of the agents

**Q.** What about the “Drug sensitivity as calculated by the assay (interpretation of Drug Response Scores)” value [1] of the same compound?
**A.** S+

**Q.** For COc1cc2ncnc(Nc3ccc(F)c(Cl)c3)c2cc1OCCCN1CCOCC1 [Gefitinib], which “effectiveness on Circulating Tumour Cells (CTCs) under laboratory conditions” value [1] is on record?
**A.** relatively less effective compared rest of the agents

**Q.** And the “Drug sensitivity as calculated by the assay (interpretation of Drug Response Scores)” value [1]?
**A.** S+

**Q.** CCc1c2c(nc3ccc(OC(=O)N4CCC(N5CCCCC5)CC4)cc13)-c1cc3c(c(=O)n1C2)COC(=O)[C@]3(O)CC [Irina] was tested. Which “Drug response score, conc. 1” value [2] did it give?
**A.** −0.0303

**Q.** And the “Drug response score, conc. 2” value [2]?
**A.** −0.1454

**Q.** And the “Drug response score, conc. 3” value [2]?
**A.** 0.2672

**Q.** And the “Drug response score, conc. 4” value [2]?
**A.** −0.0433

**Q.** Which results are given for CCc1c2c(nc3ccc(OC(=O)N4CCC(N5CCCCC5)CC4)cc13)-c1cc3c(c(=O)n1C2)COC(=O)[C@]3(O)CC [Irinotecan]?
**A.** effectiveness on Circulating Tumour Cells under laboratory conditions ([3]; GI cancer (Cholangio Carcinoma) blood sample): S+; Drug response score from blood sample, conc. 1 ([3]; conc. 1 of each drug as in Table 27, blood sample, t96h): 0.1974; Drug response score from blood sample, conc. 2 ([3]; conc. 2 of each drug as in Table 27, blood sample, t96h): 0.3469; Drug response score from blood sample, conc. 3 ([3]; conc. 3 of each drug as in Table 27, blood sample, t96h): 0.6197; Drug response score from blood sample, conc. 4 ([3]; conc. 4 of each drug as in Table 27, blood sample, t96h): 0.5913; Drug sensitivity as calculated by the assay, Blood ([3]; interpretation based on Drug Response Scores, blood sample): S+; effectiveness on Cancer Cells from tissue sample under laboratory conditions ([4]; GI cancer (Cholangio Carcinoma) tissue sample): S+; Drug sensitivity as calculated by the assay, Tissue ([4]; interpretation based on Drug Response Scores, tissue sample): S+; Drug response score, conc. 1 ([4]; tissue sample, conc. 1 per Table 27B: Pem 20, Niv 20, Atez 100, Pacli 0.05, Irino 5, Beva 1 μg/ml, Len 50, 5-FU 250 ng/ml): 0.887; Drug response score, conc. 2 ([4]; tissue sample, conc. 2 per Table 27B: Pem 40, Niv 40, Atez 200, Pacli 0.1, Irino 10, Beva 2 μg/ml, Len 100, 5-FU 500 ng/ml): 0.9135; Drug response score, conc. 3 ([4]; tissue sample, conc. 3 per Table 27B: Pem 100, Niv 80, Atez 400, Pacli 0.2, Irino 25, Beva 4 μg/ml, Len 200, 5-FU 1000 ng/ml): 0.8742; Drug response score, conc. 4 ([4]; tissue sample, conc. 4 per Table 27B: Pem 160, Niv 160, Atez 800, Pacli 1, Irino 50, Beva 8 μg/ml, Len 400, 5-FU 2000 ng/ml): 0.8612; effectiveness on the cancer cells derived from the tissue sample under laboratory conditions ([2]; osteosarcoma tissue sample): show effectiveness; Drug sensitivity as calculated by the assay (interpretation of Drug Response Scores) ([2]; osteosarcoma tissue sample, Table 33): Sensitive (S++)

**Q.** Which “Drug response score, conc. 1” value ([5]; conc. 1: Pembro 20 μg/ml, Nivo 20 μg/ml (CTCs + CD45+ cells), Lenva 50 ng/ml, Regor 60 μg/ml (CTCs), t96h) does the source give for CNC(=O)c1cc(Oc2ccc(NC(=O)Nc3ccc(Cl)c(C(F)(F)F)c3)c(F)c2)ccn1 [Regorafinib] here?
**A.** 0.9681

**Q.** And the “Drug response score, conc. 2” value ([5]; conc. 2: Pembro 40 μg/ml, Nivo 40 μg/ml (CTCs + CD45+ cells), Lenva 100 ng/ml, Regor 80 μg/ml (CTCs), t96h)?
**A.** 0.9212

**Q.** And the “Drug response score, conc. 3” value ([5]; conc. 3: Pembro 100 μg/ml, Nivo 80 μg/ml (CTCs + CD45+ cells), Lenva 200 ng/ml, Regor 120 μg/ml (CTCs), t96h)?
**A.** 0.7424

**Q.** What about the “Drug response score, conc. 4” value ([5]; conc. 4: Pembro 160 μg/ml, Nivo 160 μg/ml (CTCs + CD45+ cells), Lenva 400 ng/ml, Regor 160 μg/ml (CTCs), t96h) of the same compound?
**A.** −0.7024

**Q.** And the “effectiveness on Circulating Tumour Cells under laboratory conditions” value ([5]; rectal cancer CTCs)?
**A.** Sensitive S+

**Q.** What about the “Drug sensitivity as calculated by the assay (interpretation of Drug Response Scores)” value ([5]; rectal cancer CTCs, Table 11) of the same compound?
**A.** Sensitive (S+)
